In patent publication US9724337B2, “AG-205 for the treatment of breast cancer” (University of Kentucky Research Foundation, priority 2009, dated 2017):

Legend:
A549 cells = assay: Viability of A549 cells; format: cell-based, human; conditions: A549 cells, single agent
Method: (A) Pgrmc1 (SEQ ID NO: 7) shares homology with AtMAPR2 (SEQ ID NO: 8) (underlined residues), which was the target for a screen for small molecule ligands. The putative heme-binding Tyr106 and Tyr112 are indicated with black boxes. (B) The molecular structure of AG-205 includes multiple aromatic components. (C) Spectroscopic scan of Pgrmc1 with vehicle control compared with vehicle plus 50 µM AG-205. The decrease in relative absorbance at 400 nm is consistent with an AG-205-induced change in the spectral properties of Pgrmc1-heme. The scan is representative of four separate scans using different Pgrmc1 protein preparations. The lower scan is a comparison of purified Pgrmc1 without and with the vehicle control (DMSO). Panels D (A549 cells) and E (MDA-MB-231 cells) are viability assays of cells maintained in 0.1% serum (solid line) or 10% serum (dashed line) and treated with increasing doses of AG-205. Percent viability was determined by cell counting, and “% viability” refers to the cell number relative to the untreated control.
(§1) Tissue culture. MDA-MB-468 cells were a kind gift from Dr. Rina Plattner of the University of Kentucky and were maintained in medium consisting of Dulbecco's Modified Eagle Medium containing 10% serum supreme (Fisher) and antibiotics. Cells were grown at 37° C. in 5% CO2 in air. A549 and HCC827 lung cancer cells, as well as SK-Br-3 breast cancer cells were obtained from the ATCC (American Type Culture Collection) and were grown under the same conditions. The H1650 lung cancer cell line was a kind gift from Dr. Heinz Kohler of the University of Kentucky. The Pgrmc1 ligand AG-205 was purchased from Timtec, Inc. The EGFR inhibitor AG1478 was from Biomol, Inc. and was used at a concentration range of 0.8-40 μM.
(§2) Proliferation, anchorage-independent growth and migration assays. For growth curves, cells were plated in 24 well dishes and grown in 10% serum-containing medium. At various times, the cells were harvested with trypsin and fixed with formaldehyde added to a final concentration of 3.7%. Following the harvest of the final time point, the cells from each time point were counted using a Bright-line hemocytometer (Hausser Scientific).
(§3) MTT viability assays were performed as described previously. Briefly, cells were plated in 96-well tissue culture dishes and grown in various media with different drug doses. The cells were then incubated with 0.5 mg/ml of 3-[4,5-dimethylthiazol-2-y]-2,5-diphenyltetrazolium bromide for 1.5 hours, at which time the media was removed, the precipitated crystals were dissolved in dimethyl sulfoxide, and the absorbance at 590 nm was measured using a Bio-Tek μQuant spectrophotometer.

MDA-MB-468 cells = assay: Viability / proliferation of MDA-MB-468 cells; format: cell-based, human; conditions: MDA-MB-468 cells, increasing doses of AG1478, MTT assay
Method: as §1, §2, §3

For `COc1cc2ncnc(Nc3cccc(Cl)c3)c2cc1OC` [AG1478, reference compound], which “decrease in viability / cells killed” value (A549 cells) is on record?
The value was 25%.

What about the “change in proliferation rate between siCON and siPGR-transfected cells” value (MDA-MB-468 cells) of the same molecule?
The value was “largely blocked”.
